Data: PubChem BioAssay (NCI)
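Tested at 5 concentrations; 48 h exposure; 96-well plates; endpoints linearly interpolated, else capped at highest concentration. Here, GI50 denotes the concentration required for 50% inhibition of growth. TGI denotes the concentration required for complete inhibition of growth.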

Key:
Assay in all cases: NCI tumour cell line growth inhibition, 48 h
SF-539 CNS = tested on: SF-539 CNS
MALME-3M melanoma = tested on: MALME-3M melanoma
IGROV1 ovarian = tested on: IGROV1 ovarian
UACC-257 melanoma = tested on: UACC-257 melanoma
OVCAR-8 ovarian = tested on: OVCAR-8 ovarian
DU-145 prostate = tested on: DU-145 prostate
A498 renal = tested on: A498 renal
CCRF-CEM leukemia = tested on: CCRF-CEM leukemia
MOLT-4 leukemia = tested on: MOLT-4 leukemia
HOP-92 NSCLC = tested on: HOP-92 NSCLC
T-47D breast = tested on: T-47D breast
OVCAR-4 ovarian = tested on: OVCAR-4 ovarian
BT-549 breast = tested on: BT-549 breast
SK-OV-3 ovarian = tested on: SK-OV-3 ovarian
K-562 leukemia = tested on: K-562 leukemia
SR leukemia = tested on: SR leukemia
NCI/ADR-RES ovarian = tested on: NCI/ADR-RES ovarian
SN12C renal = tested on: SN12C renal
OVCAR-3 ovarian = tested on: OVCAR-3 ovarian
TK-10 renal = tested on: TK-10 renal
NCI-H460 lung = tested on: NCI-H460 lung
HOP-62 NSCLC = tested on: HOP-62 NSCLC
MCF7 breast = tested on: MCF7 breast
HCT-116 colon = tested on: HCT-116 colon
SW-620 colon = tested on: SW-620 colon
HL-60(TB) leukemia = tested on: HL-60(TB) leukemia
M14 melanoma = tested on: M14 melanoma
U251 CNS = tested on: U251 CNS
786-0 renal = tested on: 786-0 renal
SK-MEL-2 melanoma = tested on: SK-MEL-2 melanoma
A549 NSCLC = tested on: A549 NSCLC
SF-268 CNS = tested on: SF-268 CNS
SK-MEL-28 melanoma = tested on: SK-MEL-28 melanoma
SF-295 CNS = tested on: SF-295 CNS
UACC-62 melanoma = tested on: UACC-62 melanoma
KM12 colon = tested on: KM12 colon
SK-MEL-5 melanoma = tested on: SK-MEL-5 melanoma
MDA-MB-435 = tested on: MDA-MB-435
MDA-MB-231 breast = tested on: MDA-MB-231 breast
CAKI-1 renal = tested on: CAKI-1 renal
EKVX NSCLC = tested on: EKVX NSCLC
MDA-MB-468 breast = tested on: MDA-MB-468 breast
COLO 205 colon = tested on: COLO 205 colon
PC-3 prostate = tested on: PC-3 prostate
HCC-2998 colon = tested on: HCC-2998 colon
LOX IMVI melanoma = tested on: LOX IMVI melanoma
OVCAR-5 ovarian = tested on: OVCAR-5 ovarian
NCI-H23 lung = tested on: NCI-H23 lung
RXF 393 renal = tested on: RXF 393 renal
SNB-75 CNS = tested on: SNB-75 CNS
NCI-H522 lung = tested on: NCI-H522 lung
HS 578T breast = tested on: HS 578T breast
HCT-15 colon = tested on: HCT-15 colon
HT29 colon = tested on: HT29 colon
NCI-H226 lung = tested on: NCI-H226 lung
UO-31 renal = tested on: UO-31 renal
SNB-19 CNS = tested on: SNB-19 CNS
RPMI-8226 leukemia = tested on: RPMI-8226 leukemia
ACHN renal = tested on: ACHN renal

## CC(C)(C)c1ccc(NCc2cn(-c3ccc(C(=O)O)cc3)nc2-c2ccc(C#N)cc2)cc1
SF-539 CNS
  GI50: 5.96 µM
  TGI: 19.7 µM
MALME-3M melanoma
  GI50: 11.3 µM
  TGI: 28.3 µM
IGROV1 ovarian
  GI50: 10.7 µM
  TGI: 25.6 µM
UACC-257 melanoma
  GI50: 8.15 µM
  TGI: 42.8 µM
OVCAR-8 ovarian
  GI50: 4.66 µM
  TGI: 17.4 µM
DU-145 prostate
  GI50: 12.4 µM
  TGI: 38.2 µM
A498 renal
  GI50: 11.1 µM
  TGI: 23.4 µM
CCRF-CEM leukemia
  GI50: 3.73 µM
  TGI: 36.8 µM
MOLT-4 leukemia
  GI50: 4.34 µM
  TGI: > 100 µM
HOP-92 NSCLC
  GI50: 8.12 µM
  TGI: 23.3 µM
T-47D breast
  GI50: 4.57 µM
  TGI: > 100 µM
OVCAR-4 ovarian
  GI50: 6.23 µM
  TGI: > 100 µM
BT-549 breast
  GI50: 6.77 µM
  TGI: 22.4 µM
SK-OV-3 ovarian
  GI50: 16.1 µM
  TGI: 34.5 µM
K-562 leukemia
  GI50: 3.48 µM
  TGI: 76.9 µM
SR leukemia
  GI50: 3.03 µM
  TGI: 20.8 µM
NCI/ADR-RES ovarian
  GI50: 5.81 µM
  TGI: 23.4 µM
SN12C renal
  GI50: 7.81 µM
  TGI: 20.4 µM
OVCAR-3 ovarian
  GI50: 6.86 µM
  TGI: 21.9 µM
TK-10 renal
  GI50: 13.7 µM
  TGI: 31 µM
NCI-H460 lung
  GI50: 4.41 µM
  TGI: 17 µM
HOP-62 NSCLC
  GI50: 5.28 µM
  TGI: 20.8 µM
MCF7 breast
  GI50: 3.43 µM
  TGI: 21.6 µM
HCT-116 colon
  GI50: 4.45 µM
  TGI: 17.3 µM
SW-620 colon
  GI50: 7.65 µM
  TGI: 25.1 µM
HL-60(TB) leukemia
  GI50: 2.83 µM
  TGI: 14.1 µM
M14 melanoma
  GI50: 7.28 µM
  TGI: 25.9 µM
U251 CNS
  GI50: 4.64 µM
  TGI: 17.5 µM
786-0 renal
  GI50: 12.9 µM
  TGI: 27.6 µM
SK-MEL-2 melanoma
  GI50: 4.37 µM
  TGI: 18.3 µM
A549 NSCLC
  GI50: 3.77 µM
  TGI: 17.1 µM
SF-268 CNS
  GI50: 7.21 µM
  TGI: 26 µM
SK-MEL-28 melanoma
  GI50: 4.3 µM
  TGI: 17.8 µM
SF-295 CNS
  GI50: 5.35 µM
  TGI: 20.7 µM
UACC-62 melanoma
  GI50: 5.48 µM
  TGI: 19 µM
KM12 colon
  GI50: 3.45 µM
  TGI: 13 µM
SK-MEL-5 melanoma
  GI50: 3.58 µM
  TGI: 13.5 µM
MDA-MB-435
  GI50: 6.31 µM
  TGI: 32.7 µM
MDA-MB-231 breast
  GI50: 12.2 µM
  TGI: 27.5 µM
CAKI-1 renal
  GI50: 8.23 µM
  TGI: 26.3 µM
EKVX NSCLC
  GI50: 3.07 µM
  TGI: 12.5 µM
MDA-MB-468 breast
  GI50: 10.1 µM
  TGI: 34.3 µM
COLO 205 colon
  GI50: 3.18 µM
  TGI: 11.8 µM
PC-3 prostate
  GI50: 5.74 µM
  TGI: 31.1 µM
HCC-2998 colon
  GI50: 3.31 µM
  TGI: 11.7 µM
LOX IMVI melanoma
  GI50: 7.3 µM
  TGI: 20.3 µM
OVCAR-5 ovarian
  GI50: 14.2 µM
  TGI: 28.7 µM
NCI-H23 lung
  GI50: 11.8 µM
  TGI: 27.4 µM
RXF 393 renal
  GI50: 6.94 µM
  TGI: 21.4 µM
SNB-75 CNS
  GI50: 6.97 µM
  TGI: 21.3 µM
NCI-H522 lung
  GI50: 10.1 µM
  TGI: 27.8 µM
HS 578T breast
  GI50: 3.54 µM
  TGI: 27.2 µM
HCT-15 colon
  GI50: 3.36 µM
  TGI: 12.6 µM
HT29 colon
  GI50: 5.75 µM
  TGI: 21.4 µM
NCI-H226 lung
  GI50: 10.8 µM
  TGI: 35.6 µM
UO-31 renal
  GI50: 6.5 µM
  TGI: 21.1 µM
SNB-19 CNS
  GI50: 4.44 µM
  TGI: 16.8 µM
RPMI-8226 leukemia
  GI50: 3.91 µM
  TGI: 25.2 µM
ACHN renal
  GI50: 6.12 µM
  TGI: 60.1 µM
